# Data taken from article PMC10972746, “Substrate-induced condensation activates plant TIR domain proteins” (Nature, 2024).
# Numbering of substitutions follows the chain as printed.
# Legend:
# TX14–GFP [1] = target: T1, TX14–GFP (Arabidopsis thaliana, UniProt F4ISS7); test: NADase assay, HPLC at […] nm; NAD+-induced phase separation by confocal microscopy; assay type: biochemical; conditions: 100 uM NAD+, 10 mM MgCl2, pH 8.0, 25 °C, 16 h; condensates: 10 uM protein, NAD+ 0.2 mM
# T1 construct: gene At2g32140; residues 1-351, GFP-tagged, pET-MBP-mGFP vector, E. coli BL21(DE3)
# T1 sequence (F4ISS7 1-351): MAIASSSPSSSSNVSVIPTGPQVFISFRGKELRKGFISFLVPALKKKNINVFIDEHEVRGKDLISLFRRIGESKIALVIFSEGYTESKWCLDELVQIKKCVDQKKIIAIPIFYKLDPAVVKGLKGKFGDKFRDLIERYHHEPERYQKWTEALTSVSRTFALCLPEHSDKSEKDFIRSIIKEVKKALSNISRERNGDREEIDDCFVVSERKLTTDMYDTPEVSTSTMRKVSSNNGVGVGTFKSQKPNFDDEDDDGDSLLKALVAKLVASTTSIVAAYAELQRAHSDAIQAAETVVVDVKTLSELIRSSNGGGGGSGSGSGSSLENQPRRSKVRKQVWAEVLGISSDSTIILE
# TX14–GFP [2] = target: T2, TX14–GFP (Arabidopsis thaliana, UniProt F4ISS7, S38D); test: NADase assay, HPLC at […] nm; assay type: biochemical; conditions: 100 uM NAD+, 10 mM MgCl2, pH 8.0, 25 °C, 16 h; 40 uM protein
# T2 construct: gene At2g32140; residues 1-351, GFP-tagged, pET-MBP-mGFP vector, E. coli BL21(DE3)
# T2 sequence (F4ISS7 1-351 S38D): T1 sequence (F4ISS7 1-351) with S38D
# TX14–GFP [3] = target: T3, TX14–GFP (Arabidopsis thaliana, UniProt F4ISS7, E57A/V58A/R59A/G60A/K61A/D62A); test: NADase assay, HPLC at […] nm; assay type: biochemical; conditions: 100 uM NAD+, 10 mM MgCl2, pH 8.0, 25 °C, 16 h
# T3 construct: gene At2g32140; residues 1-351, GFP-tagged, pET-MBP-mGFP vector, E. coli BL21(DE3)
# T3 sequence (F4ISS7 1-351 E57A/V58A/R59A/G60A/K61A/D62A): T1 sequence (F4ISS7 1-351) with E57A, V58A, R59A, G60A, K61A, D62A
# RBA1–GFP [4] = target: T4, RBA1–GFP (Arabidopsis thaliana, UniProt F4HT77); test: NADase assay, HPLC at […] nm; NAD+-induced phase separation by confocal microscopy; assay type: biochemical; conditions: 100 uM NAD+, 10 mM MgCl2, pH 8.0, 25 °C, 16 h; condensates: 10 uM protein, NAD+ 0.2 mM
# T4 construct: residues 1-191, GFP-tagged, pET-MBP-mGFP vector, E. coli BL21(DE3)
# T4 sequence (F4HT77 1-191): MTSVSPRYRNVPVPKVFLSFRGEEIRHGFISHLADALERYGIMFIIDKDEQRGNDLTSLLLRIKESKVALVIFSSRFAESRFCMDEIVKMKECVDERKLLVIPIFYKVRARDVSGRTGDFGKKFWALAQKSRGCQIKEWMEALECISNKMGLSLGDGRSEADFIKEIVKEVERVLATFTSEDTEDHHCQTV
# RPP1-TIR–GFP (RPP1-TIR) [5] = target: T5, RPP1-TIR–GFP (RPP1-TIR) (Arabidopsis thaliana, UniProt Q9ZSN5); test: as above; assay type: biochemical; conditions: 100 uM NAD+, 10 mM MgCl2, pH 8.0, 25 °C, 16 h; droplets: 1 mM NAD+, 25 uM protein, 5% PEG 3,350
# T5 construct: TIR domain residues 1-254, GFP-tagged, pET-MBP-mGFP vector, E. coli BL21(DE3); an untagged 60-254 form (GST cut, Sf21) was also made
# T5 sequence (Q9ZSN5 1-254): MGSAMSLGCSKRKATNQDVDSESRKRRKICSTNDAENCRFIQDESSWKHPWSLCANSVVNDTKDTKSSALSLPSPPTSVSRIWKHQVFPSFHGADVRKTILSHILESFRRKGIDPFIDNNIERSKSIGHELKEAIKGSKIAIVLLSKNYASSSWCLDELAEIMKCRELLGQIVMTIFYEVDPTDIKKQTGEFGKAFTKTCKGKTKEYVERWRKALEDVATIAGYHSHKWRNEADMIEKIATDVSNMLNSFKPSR
# RPP1-TIR–GFP (RPP1-TIR) [6] = target: T5, RPP1-TIR–GFP (RPP1-TIR); test: ATP-induced phase separation, confocal microscopy and turbidity; conditions: 1 mM ATP, 25 uM protein, 5% PEG 3,350, pH 8.0, 25 °C, 30 min; indirect read-out of binding
# TX14–GFP [7] = target: T1, TX14–GFP; test: ATP-induced phase separation, confocal microscopy; conditions: 10 uM protein, 25 °C, 30 min; indirect read-out of binding
# RBA1–GFP [8] = target: T4, RBA1–GFP; test: ATP-induced phase separation, confocal microscopy; conditions: 10 uM protein, 25 °C, 30 min; indirect read-out of binding
SMILES,"NADase assay, HPLC at 260 nm; NAD+-induced phase separation by confocal microsco (TX14–GFP [1])",relative NADase activity (TX14–GFP [2]),relative NADase activity (TX14–GFP [3]),"NADase assay, HPLC at 260 nm; NAD+-induced phase separation by confocal microsco (RBA1–GFP [4])","NADase assay, HPLC at 260 nm; NAD+-induced phase separation by confocal microsco (RPP1-TIR–GFP (RPP1-TIR) [5])","ATP-induced phase separation, confocal microscopy and turbidity (RPP1-TIR–GFP (RPP1-TIR) [6])","ATP-induced phase separation, confocal microscopy (TX14–GFP [7])","ATP-induced phase separation, confocal microscopy (RBA1–GFP [8])"
NC(=O)c1ccc[n+]([C@@H]2O[C@H](COP(=O)(O)OP(=O)(O)OC[C@H]3O[C@@H](n4cnc5c(N)ncnc54)[C@H](O)[C@@H]3O)[C@@H](O)[C@H]2O)c1 [NAD^+],"wild-type RPP1-TIR, RBA1 and TX14 proteins nearly completely consumed the NAD^+ substrate",the mutations of the AE interface impaired the NADase activity of these TIR domain proteins,NAD^+-hydrolysing activity was significantly reduced in the corresponding BB-loop mutant proteins,"wild-type RPP1-TIR, RBA1 and TX14 proteins nearly completely consumed the NAD^+ substrate","wild-type RPP1-TIR, RBA1 and TX14 proteins nearly completely consumed the NAD^+ substrate",,,
Nc1ncnc2c1ncn2[C@@H]1O[C@H](COP(=O)(O)OP(=O)(O)OP(=O)(O)O)[C@@H](O)[C@H]1O [ATP],,,,,,ATP induced phase separation of the RPP1-TIR–GFP protein,ATP and NAD^+/ATP induced phase separation of the TIR domain protein RBA1 and TX14,ATP and NAD^+/ATP induced phase separation of the TIR domain protein RBA1 and TX14
